Test results from ChEMBL document CHEMBL1926563, “Synthesis, antimicrobial, antimycobacterial and structure-activity relationship of substituted pyrazolo-, isoxazolo-, pyrimido- and mercaptopyrimidocyclohepta[b]indoles” (2012).
Values after ≈ are worked out from the molar mass of the structure shown. Active and inactive are the calls of the source. The calls are words filed in the database; no cut-off is given here.

Columns and labels:
Fusarium solani [1] = assay: Antifungal activity against Fusarium solani NCIM 1330 after 48 hrs by disk diffusion method; assay type: functional; conditions: NCIM 1330, 48 h
Fusarium solani [2] = assay: Antifungal activity against Fusarium solani NCIM 1330 assessed as zone of inhibition at 100 ug/disc after 48 hrs by disk diffusion method; assay type: functional; conditions: NCIM 1330, 48 h, read-out: DIZ
Aspergillus niger [3] = assay: Antifungal activity against Aspergillus niger NCIM 596 assessed as zone of inhibition at 100 ug/disc after 48 hrs by disk diffusion method; assay type: functional; conditions: NCIM 596, 48 h, read-out: DIZ
Aspergillus niger [4] = assay: Antifungal activity against Aspergillus niger NCIM 596 after 48 hrs by disk diffusion method; assay type: functional; conditions: NCIM 596, 48 h
Curvularia lunata [5] = assay: Antifungal activity against Curvularia lunata NCIM 716 assessed as zone of inhibition at 100 ug/disc after 48 hrs by disk diffusion method; assay type: functional; conditions: NCIM 716, 48 h, read-out: DIZ
Curvularia lunata [6] = assay: Antifungal activity against Curvularia lunata NCIM 716 assessed as zone of inhibition at 200 ug/disc after 48 hrs by disk diffusion method; assay type: functional; conditions: NCIM 716, 48 h, read-out: DIZ
Fusarium solani [7] = assay: Antifungal activity against Fusarium solani NCIM 1330 assessed as zone of inhibition at 200 ug/disc after 48 hrs by disk diffusion method; assay type: functional; conditions: NCIM 1330, 48 h, read-out: DIZ
Aspergillus niger [8] = assay: Antifungal activity against Aspergillus niger NCIM 596 assessed as zone of inhibition at 200 ug/disc after 48 hrs by disk diffusion method; assay type: functional; conditions: NCIM 596, 48 h, read-out: DIZ
Curvularia lunata [9] = assay: Antifungal activity against Curvularia lunata NCIM 716 after 48 hrs by disk diffusion method; assay type: functional; conditions: NCIM 716, 48 h
Klebsiella pneumoniae [10] = assay: Antibacterial activity against Klebsiella pneumoniae NCIM 2957 assessed as zone of inhibition at 200 ug/disc after 24 hrs by disk diffusion method; assay type: functional; conditions: NCIM 2957, 24 h, read-out: DIZ
[11] = tested on: Mycobacterium tuberculosis; assay: Antimycobacterial activity against Mycobacterium tuberculosis H37Rv after 7 days by resazurin microtiter plate assay; assay type: functional; conditions: 168 h
Staphylococcus aureus [12] = assay: Antibacterial activity against Staphylococcus aureus NCIM 5021 assessed as zone of inhibition at 200 ug/disc after 24 hrs by disk diffusion method; assay type: functional; conditions: NCIM 5021, 24 h, read-out: DIZ
Staphylococcus aureus [13] = assay: Antibacterial activity against Staphylococcus aureus NCIM 5021 assessed as zone of inhibition at 100 ug/disc after 24 hrs by disk diffusion method; assay type: functional; conditions: NCIM 5021, 24 h, read-out: DIZ
Staphylococcus aureus [14] = assay: Antibacterial activity against Staphylococcus aureus NCIM 5021 after 24 hrs by disk diffusion method; assay type: functional; conditions: NCIM 5021, 24 h
Klebsiella pneumoniae [15] = assay: Antibacterial activity against Klebsiella pneumoniae NCIM 2957 assessed as zone of inhibition at 100 ug/disc after 24 hrs by disk diffusion method; assay type: functional; conditions: NCIM 2957, 24 h, read-out: DIZ
Bacillus subtilis [16] = assay: Antibacterial activity against Bacillus subtilis NCIM 2063 assessed as zone of inhibition at 100 ug/disc after 24 hrs by disk diffusion method; assay type: functional; conditions: NCIM 2063, 24 h, read-out: DIZ
Proteus vulgaris [17] = assay: Antibacterial activity against Proteus vulgaris NCIM 2027 assessed as zone of inhibition at 200 ug/disc after 24 hrs by disk diffusion method; assay type: functional; conditions: NCIM 2027, 24 h, read-out: DIZ
Proteus vulgaris [18] = assay: Antibacterial activity against Proteus vulgaris NCIM 2027 assessed as zone of inhibition at 100 ug/disc after 24 hrs by disk diffusion method; assay type: functional; conditions: NCIM 2027, 24 h, read-out: DIZ
Bacillus subtilis [19] = assay: Antibacterial activity against Bacillus subtilis NCIM 2063 after 24 hrs by disk diffusion method; assay type: functional; conditions: NCIM 2063, 24 h
Bacillus subtilis [20] = assay: Antibacterial activity against Bacillus subtilis NCIM 2063 assessed as zone of inhibition at 200 ug/disc after 24 hrs by disk diffusion method; assay type: functional; conditions: NCIM 2063, 24 h, read-out: DIZ
Klebsiella pneumoniae [21] = assay: Antibacterial activity against Klebsiella pneumoniae NCIM 2957 after 24 hrs by disk diffusion method; assay type: functional; conditions: NCIM 2957, 24 h
Proteus vulgaris [22] = assay: Antibacterial activity against Proteus vulgaris NCIM 2027 after 24 hrs by disk diffusion method; assay type: functional; conditions: NCIM 2027, 24 h
[23] = tested on: Mycobacterium tuberculosis; assay: Antimycobacterial activity against Mycobacterium tuberculosis H37Rv at 1.5 to 50 ug/ml after 7 days by resazurin microtiter plate assay; assay type: functional, organism-based

CC(=O)N1CCN(c2ccc(OCC3COC(Cn4ccnc4)(c4ccc(Cl)cc4Cl)O3)cc2)CC1 (configuration not stated) [KETOCONAZOLE]
MIC (Fusarium solani [1]): 12.5 µg/mL (≈ 23.5 µM) | zone of inhibition at 100 µg/disc (Fusarium solani [2]): 36 mm | zone of inhibition at 100 µg/disc (Aspergillus niger [3]): 35 mm | MIC (Aspergillus niger [4]): 6.25 µg/mL (≈ 11.8 µM) | zone of inhibition at 100 µg/disc (Curvularia lunata [5]): 40 mm | zone of inhibition at 200 µg/disc (Curvularia lunata [6]): 43 mm | zone of inhibition at 200 µg/disc (Fusarium solani [7]): 40 mm | zone of inhibition at 200 µg/disc (Aspergillus niger [8]): 38 mm | MIC (Curvularia lunata [9]): 6.25 µg/mL (≈ 11.8 µM)

Clc1ccc2[nH]c3c(c2c1)CCCc1c[nH]nc1-3
zone of inhibition at 200 µg/disc (Klebsiella pneumoniae [10]): 32 mm | MIC [11]: 12.5 µg/mL (≈ 48.5 µM) | zone of inhibition at 200 µg/disc (Staphylococcus aureus [12]): 36 mm | MIC (Fusarium solani [1]): 200 µg/mL (≈ 776 µM) | zone of inhibition at 100 µg/disc (Fusarium solani [2]): 35 mm | zone of inhibition at 100 µg/disc (Staphylococcus aureus [13]): 34 mm | zone of inhibition at 100 µg/disc (Aspergillus niger [3]): 32 mm | MIC (Staphylococcus aureus [14]): 100 µg/mL (≈ 388 µM) | MIC (Aspergillus niger [4]): 200 µg/mL (≈ 776 µM) | zone of inhibition at 100 µg/disc (Klebsiella pneumoniae [15]): 30 mm | zone of inhibition at 100 µg/disc (Curvularia lunata [5]): 34 mm | zone of inhibition at 200 µg/disc (Curvularia lunata [6]): 38 mm | zone of inhibition at 100 µg/disc (Bacillus subtilis [16]): 35 mm | zone of inhibition at 200 µg/disc (Proteus vulgaris [17]): 33 mm | zone of inhibition at 100 µg/disc (Proteus vulgaris [18]): 31 mm | zone of inhibition at 200 µg/disc (Fusarium solani [7]): 39 mm | zone of inhibition at 200 µg/disc (Aspergillus niger [8]): 35 mm | MIC (Bacillus subtilis [19]): 100 µg/mL (≈ 388 µM) | zone of inhibition at 200 µg/disc (Bacillus subtilis [20]): 37 mm | MIC (Klebsiella pneumoniae [21]): 100 µg/mL (≈ 388 µM) | MIC (Curvularia lunata [9]): 200 µg/mL (≈ 776 µM) | MIC (Proteus vulgaris [22]): 100 µg/mL (≈ 388 µM)

Clc1ccc2[nH]c3c(c2c1)CCCc1conc1-3
zone of inhibition at 200 µg/disc (Klebsiella pneumoniae [10]): 29 mm | MIC [11]: 3.12 µg/mL (≈ 12.1 µM) | zone of inhibition at 200 µg/disc (Staphylococcus aureus [12]): 33 mm | MIC (Fusarium solani [1]): 100 µg/mL (≈ 387 µM) | zone of inhibition at 100 µg/disc (Fusarium solani [2]): 33 mm | zone of inhibition at 100 µg/disc (Staphylococcus aureus [13]): 32 mm | zone of inhibition at 100 µg/disc (Aspergillus niger [3]): 29 mm | MIC (Staphylococcus aureus [14]): 50 µg/mL (≈ 193 µM) | MIC (Aspergillus niger [4]): 100 µg/mL (≈ 387 µM) | zone of inhibition at 100 µg/disc (Klebsiella pneumoniae [15]): 26 mm | zone of inhibition at 100 µg/disc (Curvularia lunata [5]): 31 mm | zone of inhibition at 200 µg/disc (Curvularia lunata [6]): 33 mm | zone of inhibition at 100 µg/disc (Bacillus subtilis [16]): 31 mm | zone of inhibition at 200 µg/disc (Proteus vulgaris [17]): 30 mm | zone of inhibition at 100 µg/disc (Proteus vulgaris [18]): 28 mm | zone of inhibition at 200 µg/disc (Fusarium solani [7]): 35 mm | zone of inhibition at 200 µg/disc (Aspergillus niger [8]): 32 mm | MIC (Bacillus subtilis [19]): 50 µg/mL (≈ 193 µM) | zone of inhibition at 200 µg/disc (Bacillus subtilis [20]): 34 mm | MIC (Klebsiella pneumoniae [21]): 100 µg/mL (≈ 387 µM) | MIC (Curvularia lunata [9]): 100 µg/mL (≈ 387 µM) | MIC (Proteus vulgaris [22]): 200 µg/mL (≈ 773 µM)

Sc1ncc2c(n1)-c1[nH]c3ccc(Cl)cc3c1CCC2
zone of inhibition at 200 µg/disc (Klebsiella pneumoniae [10]): 14 mm | MIC [11]: 25 µg/mL (≈ 82.8 µM) | zone of inhibition at 200 µg/disc (Staphylococcus aureus [12]): 18 mm | MIC (Fusarium solani [1]): 100 µg/mL (≈ 331 µM) | zone of inhibition at 100 µg/disc (Fusarium solani [2]): 16 mm | zone of inhibition at 100 µg/disc (Staphylococcus aureus [13]): 16 mm | zone of inhibition at 100 µg/disc (Aspergillus niger [3]): 15 mm | MIC (Staphylococcus aureus [14]): 50 µg/mL (≈ 166 µM) | MIC (Aspergillus niger [4]): 50 µg/mL (≈ 166 µM) | zone of inhibition at 100 µg/disc (Klebsiella pneumoniae [15]): 12 mm | zone of inhibition at 100 µg/disc (Curvularia lunata [5]): 17 mm | zone of inhibition at 200 µg/disc (Curvularia lunata [6]): 21 mm | zone of inhibition at 100 µg/disc (Bacillus subtilis [16]): 15 mm | zone of inhibition at 200 µg/disc (Proteus vulgaris [17]): 13 mm | zone of inhibition at 100 µg/disc (Proteus vulgaris [18]): 11 mm | zone of inhibition at 200 µg/disc (Fusarium solani [7]): 19 mm | zone of inhibition at 200 µg/disc (Aspergillus niger [8]): 17 mm | MIC (Bacillus subtilis [19]): 50 µg/mL (≈ 166 µM) | zone of inhibition at 200 µg/disc (Bacillus subtilis [20]): 17 mm | MIC (Klebsiella pneumoniae [21]): 100 µg/mL (≈ 331 µM) | MIC (Curvularia lunata [9]): 50 µg/mL (≈ 166 µM) | MIC (Proteus vulgaris [22]): 100 µg/mL (≈ 331 µM)

c1ccc2c3c([nH]c2c1)-c1n[nH]cc1CCC3
zone of inhibition at 200 µg/disc (Klebsiella pneumoniae [10]): 26 mm | zone of inhibition at 200 µg/disc (Staphylococcus aureus [12]): 29 mm | zone of inhibition at 100 µg/disc (Fusarium solani [2]): 30 mm | zone of inhibition at 100 µg/disc (Staphylococcus aureus [13]): 27 mm | zone of inhibition at 100 µg/disc (Aspergillus niger [3]): 28 mm | zone of inhibition at 100 µg/disc (Klebsiella pneumoniae [15]): 23 mm | zone of inhibition at 100 µg/disc (Curvularia lunata [5]): 31 mm | zone of inhibition at 200 µg/disc (Curvularia lunata [6]): 33 mm | zone of inhibition at 100 µg/disc (Bacillus subtilis [16]): 26 mm | MIC [23]: inactive | zone of inhibition at 200 µg/disc (Proteus vulgaris [17]): 25 mm | zone of inhibition at 100 µg/disc (Proteus vulgaris [18]): 22 mm | zone of inhibition at 200 µg/disc (Fusarium solani [7]): 35 mm | zone of inhibition at 200 µg/disc (Aspergillus niger [8]): 31 mm | zone of inhibition at 200 µg/disc (Bacillus subtilis [20]): 28 mm

O=C(N[C@H](CO)[C@H](O)c1ccc([N+](=O)[O-])cc1)C(Cl)Cl [CHLORAMPHENICOL]
zone of inhibition at 200 µg/disc (Klebsiella pneumoniae [10]): 42 mm | zone of inhibition at 200 µg/disc (Staphylococcus aureus [12]): 41 mm | zone of inhibition at 100 µg/disc (Staphylococcus aureus [13]): 35 mm | MIC (Staphylococcus aureus [14]): 6.25 µg/mL (≈ 19.3 µM) | zone of inhibition at 100 µg/disc (Klebsiella pneumoniae [15]): 37 mm | zone of inhibition at 100 µg/disc (Bacillus subtilis [16]): 38 mm | zone of inhibition at 200 µg/disc (Proteus vulgaris [17]): 44 mm | zone of inhibition at 100 µg/disc (Proteus vulgaris [18]): 42 mm | MIC (Bacillus subtilis [19]): 6.25 µg/mL (≈ 19.3 µM) | zone of inhibition at 200 µg/disc (Bacillus subtilis [20]): 43 mm | MIC (Klebsiella pneumoniae [21]): 12.5 µg/mL (≈ 38.7 µM) | MIC (Proteus vulgaris [22]): 12.5 µg/mL (≈ 38.7 µM)
